EPA's ToxValDB 9.5 (doi:10.2903/j.efsa.2017.4981)
Several values for one entry are separate records, joined by “and”; a condition that tells them apart may be missing. Identical values can stand only once.

How the values were obtained:
Folsomia candida = details: chronic/long-term; duration: 28 days; mortality
Tagia sp. = details: chronic/long-term, duration: 56 days
Canidae = details: oral, Dog Other, body weight
Rattus norvegicus = details: for LD50: acute, mortality
Daphnia magna = details: chronic/long-term; duration: 21 days; reproduction
Plant = details: chronic/long-term; duration: 4 months
Typhlodromus pyri = details: acute; mortality
Apis mellifera = details: acute, duration: 48 hours, mortality
Anas platyrhynchos = details: reproductive
Oncorhynchus mykiss = details: mortality
[1] = chronic, duration: 2 years, oral, diet, organ weight
[2] = reproduction developmental, reproduction
[3] = subchronic, duration: 90 days, oral, diet, F, organ weight

## CCOCCN(C(C)=O)C(=C(C)C)c1ccccc1
Folsomia candida
  NOEC: 50 mg/kg
Tagia sp.; growth
  NOEC: 30 mg/kg
Canidae; subchronic, duration: 90 days
  NOAEL: 8 mg/kg-day
Rattus norvegicus; [1]
  NOAEL: 1 mg/kg-day
Rattus norvegicus; [2]
  NOAEL: 8 mg/kg-day
Rattus norvegicus; [3]
  NOAEL: 8 mg/kg-day

## CCOCCN(C(=O)CS(=O)(=O)O)C(=C(C)C)c1ccccc1
Folsomia candida
  NOEC: 93.3 mg/kg
Tagia sp.; growth
  NOEC: 100 mg/kg
Rattus norvegicus; oral
  LD50: > 2000 mg/kg-day
Rattus norvegicus; short-term, duration: 4 weeks, oral, diet
  NOAEL: 410 mg/kg-day

## CC(C)=C(c1ccccc1)N(CC(=O)O)C(=O)CS(=O)(=O)O [N-(2-Methyl-1-phenylprop-1-en-1-yl)-N-(sulfoacetyl)glycine]
Folsomia candida
  NOEC: 100 mg/kg
Tagia sp.; growth
  NOEC: 60 mg/kg

## CCOCCN(C(=O)CCl)C(=C(C)C)c1ccccc1 [Pethoxamid]
Daphnia magna
  NOEC: 2.8 mg/L
Plant
  NOAEC: 8 µg/L
Typhlodromus pyri
  LEC: ≤ 1200 g/ha
Apis mellifera; dermal
  LD50: > 200 µg/piece
Apis mellifera; oral, unspecified
  LD50: > 200 µg/piece
Tagia sp.; reproduction
  NOEC: 0.8 mg/kg
Anas platyrhynchos
  NOEL: 396 mg/kg-day
Canidae; chronic, duration: 1 years
  NOAEL: 2 mg/kg-day
Canidae; subchronic, duration: 90 days
  NOAEL: 8 mg/kg-day
Oncorhynchus mykiss; acute, duration: 96 hours
  LC50: 2.2 µg/mL and 2.19 µg/mL
Oncorhynchus mykiss; chronic/long-term, duration: 94 days
  NOEC: 0.0924 mg/L
Rattus norvegicus; oral, M
  LD50: 983 mg/kg-day
Rattus norvegicus; [1]
  NOAEL: 1 mg/kg-day
Rattus norvegicus; reproduction developmental, oral, diet, F, reproduction
  NOAEL: 24 mg/kg-day
Rattus norvegicus; [2]
  NOAEL: 8 mg/kg-day
Rattus norvegicus; [3]
  NOAEL: 8 mg/kg-day
Colinus virginianus; acute, oral, mortality
  LD50: 872 mg/kg-day
Colinus virginianus; reproduction developmental
  NOEL: 100 mg/kg-day
